Patent US10966943B2, “Methods and compositions for treatment of asthma or parkinson's disease” (InnoPharmaScreen Inc., priority 2018, dated 2021)
“Also recorded” adds a separate entry of the source.

Assays:
OVA-challenged mice = test: OVA-induced asthma in mice (BAL fluid, IgE, lung histology); assay type: in vivo
Description: 25 mg Ovalbumin (OVA) and 1 mg aluminum hydroxide hydrate (AlOH3) were dissolved in […] of sterile saline solution and sensitized by intraperitoneal administration at 0 and 21 days. At the end of the observation period, all living animals were anesthetized using Isoflurane, and blood was collected from the vena cava/abdominal aorta. Lungs are removed and washed with sterile saline solution. […] of sterile saline was filled in a 1 mL syringe, and the injection and recovery were repeated three times. The washed solution was lightly centrifuged (300 rpm, 10 minutes) and the supernatant was frozen and used for analysis of CXCL1 (ab216951, Abcam PLC) IL-17A (ab199081, Abcam PLC) and CCL3 (ab100726, Abcam PLC). The precipitate was resuspended in the same amount of sterile saline solution and used for eosinophil count and total cell count. The collected blood was left at room temperature for 30 minutes and centrifuged at 3,000 rpm for 20 mins. to separate serum and used for total IgE and Ova-specific IgE analysis. Histopathological examination was performed using lung tissue fixed in formalin. Lung tissues extracted at autopsy were placed in a cassette and submerged in 10% Neutral buffered formalin (10% NBF) at least 20 times the tissue volume. After fixation, the tissue was cut to about 4 mm in thickness and fabricated into paraffin blocks after general tissue treatment and embedding. […]

IL-6 = test: ELISA of IL-6 in A549 cells induced by LPS or IL-1beta; assay type: cell-based, human; conditions: dose-dependent
Description: (§1) A549 cells (1×10^5/well) were seeded on a 96-well plate for 16 hrs. After starvation for 24 hrs., the cells were pretreated with LPS or IL-1beta for 4 hrs. The cells were then treated with IPS-07004 for 24 hrs. in a dose-dependent manner. Cytokines levels (IL-6 and IL-8) in media were analyzed in accordance with the manufacturer's specification (BD Biosciences Pharmingen, San Diego, Calif., USA).
(§2) To assess whether IPS-07004 inhibits the expression of IL-6 and IL-8, which play a critical role in asthma pathology, ELISA of the cytokines in A549 cells was employed.

IL-8 = test: ELISA of IL-8 in A549 cells induced by LPS or IL-1beta; assay type: cell-based, human; conditions: dose-dependent
Description: as §1, §2

[1] = system: A549 lung carcinoma cells; test: In vitro cell viability assay (MTT); assay type: cell-based, human; conditions: IPS-07004 for 24 hrs, FIG. 1
Description: A549 lung carcinoma cells (1×10^3/well) were seeded on a 96-well plate for 16 hrs. After starvation for 24 hrs., the cells were pretreated with LPS or IL-1b for 4 hrs. The cells were then treated with IPS-07004 for 24 hrs. in a dose-dependent manner. After 48 hrs. of incubation, MTT [3-(4,5-dimethylthiazol-2-yl)-2,5-diphenyl-tetrazolium bromide] solution (5 mg/ml) was added to each well in an amount of 1/10 of total volume, and the cells were incubated for 2 hrs. at 37° C.
To examine the survival rate for A549 cells treated with IPS-07004, an in vitro cell viability assay was performed using MTT.

[2] = Mast cell number and serum IgE level; assay type: in vivo; conditions: FIG. 8
MPTP-injected mice = test: MPTP-induced Parkinson's disease mice (pole test, TH, IL-1b); assay type: in vivo
Description: For 1-methyl-4-phenyl-1,2,3,6-tetrahydropyridine (MPTP) intoxication, the mice received four intraperitoneal (i.p.) injections of MPTP-HCl (20 mg/kg, free base in saline; Sigma-Aldrich, St. Louis, Mo.) dissolved in PBS at 2 h intervals. Twelve hours after the last MPTP injection, the MPTP-injected mice were received IPS-07004, Montelukast, or IPS-07005 once daily through p.o. administrations.
To examine the effect of IPS-07004 on abnormal behavior of PD mice, Pole test (T-turn and T-LA time) was carried out. PD was induced in mice treated with MPTP (20 mg/kg, I.P) and the mice were administered with IPS-07004 at a dose of 10 mg/kg. And then pole test was performed in the mice. which can measure bradykinesia, a hallmark of Parkinson's disease. The T-turn measures the time the black mouse turns down from the top of the pole. IPS-07004 reduced the T-turn and T-LA time compared with MPTP-treated control group and L-Dopa-treated group, as shown in FIG. 18.

[3] = system: TSLP (Thymic Stromal Lymphopoietin); test: TSLP expression in HMC-1 cells; assay type: cell-based, human; conditions: FIG. 7
human Caspase-1 = biological target: T1, human Caspase-1 (Homo sapiens, UniProt P29466); test: Caspase-1 activity in HMC-1 cell-based assay; conditions: HMC-1 cells; FIG. 7, FIG. 9
T1 construct: endogenous in cells; host or cells: HMC-1 (human mast cell line)
T1 sequence (P29466 120-404): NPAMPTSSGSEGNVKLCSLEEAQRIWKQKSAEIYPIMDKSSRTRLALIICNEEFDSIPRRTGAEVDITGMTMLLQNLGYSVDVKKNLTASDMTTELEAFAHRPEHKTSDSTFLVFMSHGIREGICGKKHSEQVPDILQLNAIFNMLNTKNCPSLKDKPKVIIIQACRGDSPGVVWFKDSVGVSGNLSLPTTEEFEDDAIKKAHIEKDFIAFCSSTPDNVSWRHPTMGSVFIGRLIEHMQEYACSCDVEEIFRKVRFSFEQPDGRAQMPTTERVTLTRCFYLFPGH
Excerpt: Using HMC-1 (human mast cell line) cell-based assay, IPS-07005 ((IPS-07004+Montelukast) inhibited the activity of Caspase-1, a critical component of inflammasome, to suppress the conversion of Pro-TSLP, IL-1beta, and -IL-18 to active forms as shown in FIG. 9.

[4] = system: TSLP (Thymic Stromal Lymphopoietin); test: TSLP expression in DNCB mice; assay type: in vivo; conditions: DNCB (2,4-dinitrochlorobenzene) mice; FIG. 7
[5] = A549 cells induced by LPS, FIG. 2
[6] = MPTP (20 mg/kg, I.P) mice, 10 mg/kg, compared with MPTP-treated control group and L-Dopa-treated group, FIG. 18

SMILES: [H]/N=C(\N/C(=N/[H])Nc1ccc(Cl)cc1)NC(C)C [IPS-07004, proguanil]
- eosinophil number in BALF (OVA-challenged mice; compared with the OVA-challenged group, FIGS. 13B, 13C): decreased
- expression level of IL-6 (IL-6; A549 cells induced by IL-1beta): reduced
- expression level of IL-6 (IL-6; [5]): reduced
- expression level of IL-8 (IL-8; A549 cells induced by IL-1beta): reduced
- expression level of IL-8 (IL-8; [5]): reduced
- viability of A549 cells (MTT) ([1]; cells induced by IL-1beta): little or no effect
- viability of A549 cells (MTT) ([1]; cells induced by LPS): little or no effect
- mast cell number [2]: inhibitory effect
- serum IgE level [2]: inhibitory effect
- Pole test T-LA time (MPTP-injected mice; [6]): reduced
- Pole test T-turn time (MPTP-injected mice; [6]): reduced
- tyrosine hydroxylase (TH) level in striatum and Substantia nigra (immunohistochemistry) (MPTP-injected mice; PD mice brain, compared with MPTP-treated control group and L-Dopa-treated group, FIG. 19): decreased
- IL-1b expression in PD brain (MPTP-injected mice; PD mice, FIG. 20): reduced
- TSLP expression [3]: inhibitory effect
- Caspase-1 activity (human Caspase-1): inhibitory effect; also recorded: inhibited
- TSLP expression [4]: inhibitory effect

SMILES: CC(C)(O)c1ccccc1CC[C@@H](SCC1(CC(=O)O)CC1)c1cccc(/C=C/c2ccc3ccc(Cl)cc3n2)c1 [Montelukast, montelukast]
- number of goblet cells (PAS staining of lung sections) (OVA-challenged mice; high dose of Montelukast, versus OVA-challenged group, FIGS. 15A and 15B): significantly lower
